The subject of data set [1] is HDACs (HeLa cell nuclear extracts). As to the kind of experiment: HDAC enzymatic activity, Biomol Color de Lys system. Particulars: 1 hour, 25° C. Type of data set: biochemical. In a few lines:
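IC50 from sigmoidal fit of developer-terminated fluorescence (ex 350-380/em 440-460 nm). Reaction: 1 h at room temperature (25 °C), HeLa nuclear extract as HDAC source, artificial substrate, buffer of 50 mM Tris/Cl pH 8.0 with 137 mM NaCl, 2.7 mM KCl and 1 mM MgCl2.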

Data set [2] concerns the target T1, mTor serine/threonine protein kinase (Homo sapiens, UniProt P42345).
T1 construct: FLAG; made in house; host or cells: Baculovirus expression system in Sf21 cells
Description: mTor kinase radioisotope assay. Type of data set: biochemical. Particulars: 70 uM ATP, 40 minutes; read-out: m-TOR IC50. The method, then:
(F) an In Vitro Assay which-Determines the Ability of a Test Compound to Inhibit mTor Serine/Threonine Protein Kinase.
The ability of compounds to inhibit mTor activity was assayed using standard radioisotope assay for kinase. Briefly, FLAG-tagged, recombinant full-length human mTor (GenBank accession No. NM_004958) was expressed using baculovirus expression system in Sf21 cells and purified using antibody affinity column. Purified enzyme was incubated with c-terminal fragment of p70S6K as it's substrate in the presence of ATP. p33 ATP tracers were included in the assay to monitor the enzyme activity. Final assay condition was with 50 mM HEPES pH 7.5, 1 mM EGTA, 0.01% Tween 20, 2 mg/ml substrate, 3 mM Manganese Chloride and 70 uM of ATP and was carried out at room temperature for 40 minutes. The reaction was then stopped by the addition of 3% phosphoric acid solution. 10 ul of the reaction was spotted onto a P30 filtermat and washed three times for 5 minutes in 75 mM phosphoric acid and once in methanol prior to drying and scintillation counting. Different concentrations of compounds were added to reaction to assess the activity of compounds to inhibit mTor kinase. IC50 was calculated using Prism software with sigmoidal dose-response curve fitting.

A further data set deals with T2, PI3Kα (p110α/p85α) (Homo sapiens, UniProt P42336).
T2 construct: GST (N); made in house; host or cells: Baculovirus-infected Sf9 cells
T2 sequence (P42336 whole entry): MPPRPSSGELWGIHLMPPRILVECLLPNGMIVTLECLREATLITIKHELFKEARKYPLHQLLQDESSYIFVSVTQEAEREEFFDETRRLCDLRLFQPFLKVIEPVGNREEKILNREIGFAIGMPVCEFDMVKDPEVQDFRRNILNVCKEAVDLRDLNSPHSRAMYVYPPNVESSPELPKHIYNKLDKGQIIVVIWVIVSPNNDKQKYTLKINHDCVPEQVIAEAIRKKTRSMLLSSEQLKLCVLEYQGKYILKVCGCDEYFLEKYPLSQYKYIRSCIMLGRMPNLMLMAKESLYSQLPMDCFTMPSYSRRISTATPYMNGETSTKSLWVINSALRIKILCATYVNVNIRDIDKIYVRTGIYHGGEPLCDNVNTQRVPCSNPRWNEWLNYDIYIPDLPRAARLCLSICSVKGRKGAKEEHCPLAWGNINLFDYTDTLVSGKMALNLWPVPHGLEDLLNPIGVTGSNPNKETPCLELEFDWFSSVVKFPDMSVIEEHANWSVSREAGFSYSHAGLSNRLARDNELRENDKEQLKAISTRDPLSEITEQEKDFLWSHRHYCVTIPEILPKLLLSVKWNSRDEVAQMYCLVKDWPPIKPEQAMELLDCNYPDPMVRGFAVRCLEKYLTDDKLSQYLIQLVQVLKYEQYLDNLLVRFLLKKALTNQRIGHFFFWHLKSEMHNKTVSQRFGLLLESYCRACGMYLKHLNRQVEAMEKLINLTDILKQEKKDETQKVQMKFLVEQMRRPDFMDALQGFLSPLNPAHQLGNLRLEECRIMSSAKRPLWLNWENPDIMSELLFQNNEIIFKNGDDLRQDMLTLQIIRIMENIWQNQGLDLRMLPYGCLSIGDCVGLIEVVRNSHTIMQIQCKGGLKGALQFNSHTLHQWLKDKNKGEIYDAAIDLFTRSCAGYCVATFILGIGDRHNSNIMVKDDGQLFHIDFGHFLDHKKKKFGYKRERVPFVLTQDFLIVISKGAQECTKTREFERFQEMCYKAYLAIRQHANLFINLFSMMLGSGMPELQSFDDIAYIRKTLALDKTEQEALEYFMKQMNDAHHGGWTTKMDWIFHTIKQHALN
T2 sequence (P27986 whole entry partner): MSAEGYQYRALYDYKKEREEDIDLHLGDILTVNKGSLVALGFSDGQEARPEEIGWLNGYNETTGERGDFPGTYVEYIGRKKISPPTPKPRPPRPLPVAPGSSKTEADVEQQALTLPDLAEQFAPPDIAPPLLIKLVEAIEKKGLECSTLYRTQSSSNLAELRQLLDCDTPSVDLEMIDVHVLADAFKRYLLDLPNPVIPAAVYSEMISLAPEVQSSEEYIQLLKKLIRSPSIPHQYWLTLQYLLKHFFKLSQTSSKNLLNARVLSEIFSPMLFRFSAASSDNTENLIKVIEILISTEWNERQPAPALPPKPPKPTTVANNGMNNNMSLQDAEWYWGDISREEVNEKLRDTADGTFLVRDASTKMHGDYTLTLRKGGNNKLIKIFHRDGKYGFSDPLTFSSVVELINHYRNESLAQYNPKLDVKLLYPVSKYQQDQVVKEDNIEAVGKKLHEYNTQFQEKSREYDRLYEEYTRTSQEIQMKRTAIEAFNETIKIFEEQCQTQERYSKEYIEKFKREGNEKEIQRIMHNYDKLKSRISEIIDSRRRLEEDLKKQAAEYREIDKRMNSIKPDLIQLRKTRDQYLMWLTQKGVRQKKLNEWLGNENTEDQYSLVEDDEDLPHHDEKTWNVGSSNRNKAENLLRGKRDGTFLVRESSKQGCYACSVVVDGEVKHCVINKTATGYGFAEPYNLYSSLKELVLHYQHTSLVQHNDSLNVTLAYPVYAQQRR
As to the kind of experiment: PI3Kα ADP-Glo assay. The format is biochemical. The following applies: 20 μM PIP2, 10 μM ATP, 30 minutes. An outline of the steps: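 Luminescent ADP-Glo detection, after depletion of residual ATP, quantified ADP made by PI3Kα phosphorylating 20 μM PIP2 at 10 μM ATP. The kinase step ran 30 min at room temperature in HEPES pH 7.4 with MgCl2, DTT and orthovanadate, using baculovirus/Sf9-expressed full-length p110α/p85α complex.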

Some results are limits rather than exact numbers.

As for `CC(=O)c1ccc(F)c(-c2nc(N3CCOCC3)c3sc(CN(C)c4ncc(C(=O)NO)cn4)cc3n2)c1` [Compound 301], the results for the IC50 (in data set [1]; in data set [2]; at PI3Kα (p110α/p85α)) were less than 100 nM, greater than 10000 nM and 1000 to 10000 nM, respectively.
On the same counts, the results for `Cn1cc(-c2nc(N3CCOCC3)c3sc(CN(CCO)c4ncc(C(=O)NO)cn4)cc3n2)cn1` [Compound 313] are less than 100 nM, greater than 10000 nM and 100 to 1000 nM.
In the same order, the values of `CN(Cc1cc2nc(-c3cccc(C(N)=O)c3)nc(N3CCOCC3)c2s1)c1ncc(C(=O)NO)cn1` [Compound 142, 2-(((2-(3-carbamoylphenyl)-4-morpholinothieno[3,2-d]pyrimidin-6-yl)methyl)(methyl)amino)-N-hydroxypyrimidine-5-carboxamide] are less than 100 nM, 100 to 1000 nM and 100 to 1000 nM.
On the same counts, the results for `CN(Cc1cc2nc(-c3c[nH]c4ccccc34)nc(N3CCOCC3)c2s1)c1ncc(C(=O)NO)cn1` [Compound 184] are less than 100 nM, 100 to 1000 nM and 1000 to 10000 nM.
Consider `CN(Cc1cc2nc(-c3ccc4c(c3)NC(=O)CO4)nc(N3CCOCC3)c2s1)c1ncc(C(=O)NO)cn1` [Compound 183], for which the half-inhibitory concentration (IC50) in data set [1] was less than 100 nM; in data set [2], greater than 10000 nM; against PI3Kα (p110α/p85α), greater than 10000 nM.
As for `CN(Cc1cc2nc(-c3cccc4c3CNC4=O)nc(N3CCOCC3)c2s1)c1ncc(C(=O)NO)cn1` [Compound 181], the IC50 was less than 100 nM in data set [1], greater than 10000 nM in data set [2] and 1000 to 10000 nM against PI3Kα (p110α/p85α).
In the same order, the values of `Cc1ncc(-c2nc(N3CCOCC3)c3sc(CN(C)c4ncc(C(=O)NO)cn4)cc3n2)s1` [Compound 311] are less than 100 nM, greater than 10000 nM and 100 to 1000 nM.
In the same order, the values of `COc1ccc(-c2nc(N3CCOCC3)c3sc(CN(CCO)c4ncc(C(=O)NO)cn4)cc3n2)cn1` [Compound 265] are less than 100 nM, greater than 10000 nM and less than 100 nM.
`CS(=O)(=O)N1CCN(Cc2cc3nc(-c4cccc5[nH]ncc45)nc(N4CCN(CCCCCCC(=O)NO)CC4)c3s2)CC1` [Compound 32, 7-(4-(2-(1H-indazol-4-yl)-6-((4-(methylsulfonyl)piperazin-1-yl)methyl)thieno[3,2-d]pyrimidin-4-yl)piperazin-1-yl)-N-hydroxyheptanamide] had a melting point of 131 to 134 °C. Besides, the IC50 in data set [1] is 100 to 1000 nM. For the same compound, the IC50 against PI3Kα (p110α/p85α) is greater than 10000 nM.
Consider `CN(Cc1cc2nc(-c3ccc(N)cc3F)nc(N3CCOCC3)c2s1)c1ncc(C(=O)NO)cn1` [Compound 283, 2-{[2-(4-Amino-2-fluoro-phenyl)-4-morpholin-4-yl-thieno[3,2-d]pyrimidin-6-ylmethyl]-methyl-amino}-pyrimidine-5-carboxylic acid hydroxyamide], for which the melting point is 195 to 197 °C. Moreover, in data set [1], the concentration for half-maximal inhibition (IC50) was less than 100 nM. Besides, the IC50 against PI3Kα (p110α/p85α) lay within 100 to 1000 nM.
In the same order, the values of `Nc1ncc(-c2nc(N3CCOCC3)c3sc(NCCCC(=O)NO)cc3n2)cn1` [Compound 225, 4-(2-(2-aminopyrimidin-5-yl)-4-morpholinothieno[3,2-d]pyrimidin-6-ylamino)-N-hydroxybutanamide] are 220 to 230 °C, 1000 to 10000 nM and less than 100 nM.
On the same counts, the results for `CN(C)c1cccc(-c2nc(N3CCOCC3)c3sc(CN(C)c4ncc(C(=O)NO)cn4)cc3n2)c1` [Compound 108, 2-(((2-(3-(dimethylamino)phenyl)-4-morpholinothieno[3,2-d]pyrimidin-6-yl)methyl)(methyl)amino)-N-hydroxypyrimidine-5-carboxamide] are 172 to 175 °C, less than 100 nM and 1000 to 10000 nM.
In the same order, the values of `Nc1ncc(-c2nc(N3CCOCC3)c3sc(NS(=O)(=O)c4cccc(/C=C/C(=O)NO)c4)cc3n2)cn1` [Compound 218, (E)-3-(3-(N-(2-(2-aminopyrimidin-5-yl)-4-morpholinothieno[3,2-d]pyrimidin-6-yl)sulfamoyl)phenyl)-N-hydroxyacrylamide] are greater than 300 °C, less than 100 nM and less than 100 nM.
Compound `CC(O)c1ccc(F)c(-c2nc(N3CCOCC3)c3sc(CN(C)c4ncc(C(=O)NO)cn4)cc3n2)c1` (stereo not drawn) [Compound 295, 2-(((2-(2-Fluoro-5-(1-hydroxyethyl)phenyl)-4-morpholinothieno[3,2-d]pyrimidin-6-yl)methyl)(methyl)amino)-N-hydroxypyrimidine-5-carboxamide] registered a melting point of 230 to 235 °C. Further, the IC50 in data set [1] was less than 100 nM. The compound also registered an IC50 on PI3Kα (p110α/p85α) of 100 to 1000 nM.
`CN(Cc1cc2nc(-c3ccc4c(c3)NCCO4)nc(N3CCOCC3)c2s1)c1ncc(C(=O)NO)cn1` [Compound 182, 2-(((2-(3,4-dihydro-2H-benzo[b][1,4]oxazin-6-yl)-4-morpholinothieno[3,2-d]pyrimidin-6-yl)methyl)(methyl)amino)-N-hydroxypyrimidine-5-carboxamide]: the melting point was 170 to 183 °C. Also, the half-inhibitory concentration (IC50) in data set [1] is less than 100 nM. The compound further gave an IC50 against PI3Kα (p110α/p85α) of 1000 to 10000 nM.
On the same counts, the results for `CN(Cc1cc2nc(-c3ccc(N4CCCC4)cc3)nc(N3CCOCC3)c2s1)c1ncc(C(=O)NO)cn1` [Compound 155, N-hydroxy-2-(methyl((4-morpholino-2-(4-(pyrrolidin-1-yl)phenyl)thieno[3,2-d]pyrimidin-6-yl)methyl)amino)pyrimidine-5-carboxamide] are 187 to 192 °C, less than 100 nM and greater than 10000 nM.
In the same order, the values of `COc1cccc(-c2nc(N3CCOCC3)c3sc(CN(C)c4ncc(C(=O)NO)cn4)cc3n2)c1` [Compound 130, N-hydroxy-2-(((2-(3-methoxyphenyl)-4-morpholinothieno[3,2-d]pyrimidin-6-yl)methyl)(methyl)amino)pyrimidine-5-carboxamide] are 179 to 181 °C, less than 100 nM and 100 to 1000 nM.
In the same order, the values of `CN(CCCCCCC(=O)NO)Cc1cc2nc(-c3cccc4[nH]ncc34)nc(N3CCOCC3)c2s1` [Compound 104, 7-(((2-(1H-indazol-4-yl)-4-morpholinothieno[3,2-d]pyrimidin-6-yl)methyl)(methyl)amino)-N-hydroxyheptanamide] are 131 to 133 °C, 100 to 1000 nM and less than 100 nM.
In turn, `CS(=O)(=O)N1CCN(Cc2cc3nc(-c4cccc5nn(CCCCCC(=O)NO)cc45)nc(N4CCOCC4)c3s2)CC1` [Compound 8, N-hydroxy-6-(4-(6-((4-(methylsulfonyl)piperazin-1-yl)methyl)-4-morpholinothieno[3,2-d]pyrimidin-2-yl)-2H-indazol-2-yl)hexanamide] displayed a melting point of 124 to 125 °C. Moreover, in data set [1], the IC50 was less than 100 nM. On PI3Kα (p110α/p85α), this compound gave an IC50 greater than 10000 nM.
In the same order, the values of `CN(Cc1cc2nc(-c3cnc(CN)nc3)nc(N3CCOCC3)c2s1)c1ncc(C(=O)NO)cn1` [Compound 124, 2-(((2-(2-(aminomethyl)pyrimidin-5-yl)-4-morpholinothieno[3,2-d]pyrimidin-6-yl)methyl)(methyl)amino)-N-hydroxypyrimidine-5-carboxamide] are greater than 300 °C, less than 100 nM and less than 100 nM.

The values are drawn from patent US20130102595A1 (Curis, Inc., priority 2011, published 2013).
